{"source": "patent US12343326B2", "about": "“Psychoactive medicines and their use for treating psychiatric and neurological conditions and disorders” (Transcend Therapeutics, Inc., priority 2021, dated 2025)", "test_in_all_cases": "β-arrestin based GPCR screen (PathHunter / GPCRmax), antagonist mode", "key": {"[1]": {"biological_target": "168 GPCRs (Homo sapiens, UniProt P32245)", "sequence (P32245 whole entry)": "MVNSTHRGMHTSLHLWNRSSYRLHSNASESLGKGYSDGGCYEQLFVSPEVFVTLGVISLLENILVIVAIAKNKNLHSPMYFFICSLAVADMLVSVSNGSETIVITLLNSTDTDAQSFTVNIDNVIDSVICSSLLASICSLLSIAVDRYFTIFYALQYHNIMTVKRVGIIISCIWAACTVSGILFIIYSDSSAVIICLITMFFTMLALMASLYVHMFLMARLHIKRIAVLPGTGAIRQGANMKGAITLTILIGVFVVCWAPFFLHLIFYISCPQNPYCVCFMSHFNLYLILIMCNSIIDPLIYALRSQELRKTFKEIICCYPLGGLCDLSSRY", "settings": "MC4R"}, "[2]": {"biological_target": "168 GPCRs (Homo sapiens, UniProt P47898)", "settings": "HTR5A"}, "[3]": {"biological_target": "168 GPCRs (Homo sapiens, UniProt P25021)", "sequence (P25021 whole entry)": "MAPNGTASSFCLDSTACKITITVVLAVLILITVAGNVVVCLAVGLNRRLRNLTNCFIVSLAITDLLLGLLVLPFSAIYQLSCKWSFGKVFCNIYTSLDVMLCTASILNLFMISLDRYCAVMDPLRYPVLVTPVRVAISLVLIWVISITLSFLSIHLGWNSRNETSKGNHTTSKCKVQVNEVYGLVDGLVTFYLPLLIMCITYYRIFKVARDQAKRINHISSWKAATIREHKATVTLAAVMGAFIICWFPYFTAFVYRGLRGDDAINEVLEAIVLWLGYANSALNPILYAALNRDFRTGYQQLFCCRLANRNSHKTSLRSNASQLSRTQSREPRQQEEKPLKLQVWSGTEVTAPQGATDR"}, "[4]": {"biological_target": "168 GPCRs (Homo sapiens, UniProt P49238)"}, "[5]": {"biological_target": "168 GPCRs (Homo sapiens, UniProt P32745)", "sequence (P32745 whole entry)": "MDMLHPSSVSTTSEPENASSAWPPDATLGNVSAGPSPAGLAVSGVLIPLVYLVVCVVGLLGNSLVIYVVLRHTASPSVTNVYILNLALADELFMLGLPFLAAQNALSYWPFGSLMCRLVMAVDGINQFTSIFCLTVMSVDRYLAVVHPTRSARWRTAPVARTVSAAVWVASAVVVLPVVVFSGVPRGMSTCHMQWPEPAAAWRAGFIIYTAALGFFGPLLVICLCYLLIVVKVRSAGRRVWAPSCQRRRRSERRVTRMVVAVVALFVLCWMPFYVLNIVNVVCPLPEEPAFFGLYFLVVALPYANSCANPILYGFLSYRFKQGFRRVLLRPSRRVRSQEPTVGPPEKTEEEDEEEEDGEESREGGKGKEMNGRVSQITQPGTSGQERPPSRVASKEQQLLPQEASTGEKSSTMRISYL"}, "[6]": {"biological_target": "168 GPCRs (Homo sapiens, UniProt P43119)", "settings": "PTGIR"}, "[7]": {"biological_target": "168 GPCRs (Homo sapiens, UniProt P25090)"}, "[8]": {"biological_target": "168 GPCRs (Homo sapiens, UniProt P35372)", "sequence (P35372 whole entry)": "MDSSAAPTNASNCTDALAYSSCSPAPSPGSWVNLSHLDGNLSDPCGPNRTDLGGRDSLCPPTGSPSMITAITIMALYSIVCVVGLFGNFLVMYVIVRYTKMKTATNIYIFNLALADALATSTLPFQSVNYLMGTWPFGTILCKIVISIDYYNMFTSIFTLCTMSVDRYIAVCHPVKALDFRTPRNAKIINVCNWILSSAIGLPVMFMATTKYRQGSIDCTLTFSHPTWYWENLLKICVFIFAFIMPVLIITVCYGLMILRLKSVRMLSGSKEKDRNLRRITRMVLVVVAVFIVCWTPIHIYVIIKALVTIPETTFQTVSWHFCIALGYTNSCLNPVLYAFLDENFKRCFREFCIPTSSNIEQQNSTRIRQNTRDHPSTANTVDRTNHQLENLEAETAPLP"}, "[9]": {"biological_target": "168 GPCRs (Homo sapiens, UniProt P21554)", "sequence (P21554 whole entry)": "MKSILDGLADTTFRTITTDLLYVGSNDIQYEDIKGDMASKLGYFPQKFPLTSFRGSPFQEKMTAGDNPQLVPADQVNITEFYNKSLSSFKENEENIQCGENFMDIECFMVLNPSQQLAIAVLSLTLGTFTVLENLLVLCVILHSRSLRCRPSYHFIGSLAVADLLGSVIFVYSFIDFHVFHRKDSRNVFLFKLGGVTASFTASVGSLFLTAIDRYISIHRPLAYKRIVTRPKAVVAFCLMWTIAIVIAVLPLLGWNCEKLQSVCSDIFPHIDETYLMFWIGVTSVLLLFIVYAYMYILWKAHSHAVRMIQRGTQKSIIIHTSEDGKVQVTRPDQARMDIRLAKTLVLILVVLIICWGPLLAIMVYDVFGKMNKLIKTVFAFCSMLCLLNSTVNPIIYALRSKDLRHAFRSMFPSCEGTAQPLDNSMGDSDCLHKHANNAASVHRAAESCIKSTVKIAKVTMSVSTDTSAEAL"}, "[10]": {"biological_target": "T1, 168 GPCRs (Homo sapiens, UniProt Q5NUL3)", "T1 sequence (Q5NUL3 1-361)": "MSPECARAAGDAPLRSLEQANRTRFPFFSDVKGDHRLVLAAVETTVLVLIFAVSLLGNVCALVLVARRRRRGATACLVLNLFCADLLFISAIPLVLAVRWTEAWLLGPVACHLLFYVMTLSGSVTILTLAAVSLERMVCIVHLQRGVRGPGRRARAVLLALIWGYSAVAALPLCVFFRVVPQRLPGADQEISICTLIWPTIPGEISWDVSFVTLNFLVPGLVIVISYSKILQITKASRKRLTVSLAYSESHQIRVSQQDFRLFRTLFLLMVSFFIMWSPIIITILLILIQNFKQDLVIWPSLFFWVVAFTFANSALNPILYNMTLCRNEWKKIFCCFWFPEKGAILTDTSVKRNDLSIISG"}, "[11]": {"biological_target": "168 GPCRs (Homo sapiens, UniProt P30550)", "sequence (P30550 whole entry)": "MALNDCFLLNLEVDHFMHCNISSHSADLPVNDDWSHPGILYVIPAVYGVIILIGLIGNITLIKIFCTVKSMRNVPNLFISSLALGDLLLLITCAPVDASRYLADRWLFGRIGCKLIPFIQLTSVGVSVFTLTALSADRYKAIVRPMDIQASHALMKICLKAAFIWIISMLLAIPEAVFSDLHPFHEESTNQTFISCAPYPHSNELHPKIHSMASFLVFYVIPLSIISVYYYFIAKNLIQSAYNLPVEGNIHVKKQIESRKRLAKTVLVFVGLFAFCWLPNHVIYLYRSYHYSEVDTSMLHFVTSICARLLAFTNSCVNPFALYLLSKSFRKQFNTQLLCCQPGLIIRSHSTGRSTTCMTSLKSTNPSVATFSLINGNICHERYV", "settings": "GRPR"}, "[12]": {"biological_target": "168 GPCRs (Homo sapiens, UniProt P08588)", "sequence (P08588 whole entry)": "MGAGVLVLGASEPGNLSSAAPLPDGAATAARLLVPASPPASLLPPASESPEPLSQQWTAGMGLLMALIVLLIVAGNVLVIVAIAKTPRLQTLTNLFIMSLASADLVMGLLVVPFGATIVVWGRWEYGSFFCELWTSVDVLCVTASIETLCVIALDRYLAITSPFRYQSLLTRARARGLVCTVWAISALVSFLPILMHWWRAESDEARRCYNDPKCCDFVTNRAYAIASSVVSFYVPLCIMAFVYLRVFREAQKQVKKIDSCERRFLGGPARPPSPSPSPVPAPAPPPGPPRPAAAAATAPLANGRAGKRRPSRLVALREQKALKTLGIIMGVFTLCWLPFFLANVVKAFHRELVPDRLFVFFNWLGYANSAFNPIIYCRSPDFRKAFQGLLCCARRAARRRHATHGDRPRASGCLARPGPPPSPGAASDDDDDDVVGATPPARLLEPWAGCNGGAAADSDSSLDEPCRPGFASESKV", "settings": "ADRB1, Antagonist"}, "[13]": {"biological_target": "168 GPCRs (Homo sapiens, UniProt Q969F8)", "settings": "KISS1R"}, "[14]": {"biological_target": "168 GPCRs (Homo sapiens, UniProt P33032)", "sequence (P33032 whole entry)": "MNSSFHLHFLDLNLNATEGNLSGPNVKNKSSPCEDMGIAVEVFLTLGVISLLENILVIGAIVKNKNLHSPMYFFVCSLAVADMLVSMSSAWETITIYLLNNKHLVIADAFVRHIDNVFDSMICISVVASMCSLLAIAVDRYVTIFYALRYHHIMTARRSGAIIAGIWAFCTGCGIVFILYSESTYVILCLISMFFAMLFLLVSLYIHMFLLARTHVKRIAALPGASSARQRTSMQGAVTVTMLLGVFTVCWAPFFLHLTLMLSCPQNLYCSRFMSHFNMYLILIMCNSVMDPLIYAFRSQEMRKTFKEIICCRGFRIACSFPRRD", "settings": "MC5R"}, "[15]": {"biological_target": "168 GPCRs (Homo sapiens, UniProt Q16602)", "sequence (Q16602 23-461)": "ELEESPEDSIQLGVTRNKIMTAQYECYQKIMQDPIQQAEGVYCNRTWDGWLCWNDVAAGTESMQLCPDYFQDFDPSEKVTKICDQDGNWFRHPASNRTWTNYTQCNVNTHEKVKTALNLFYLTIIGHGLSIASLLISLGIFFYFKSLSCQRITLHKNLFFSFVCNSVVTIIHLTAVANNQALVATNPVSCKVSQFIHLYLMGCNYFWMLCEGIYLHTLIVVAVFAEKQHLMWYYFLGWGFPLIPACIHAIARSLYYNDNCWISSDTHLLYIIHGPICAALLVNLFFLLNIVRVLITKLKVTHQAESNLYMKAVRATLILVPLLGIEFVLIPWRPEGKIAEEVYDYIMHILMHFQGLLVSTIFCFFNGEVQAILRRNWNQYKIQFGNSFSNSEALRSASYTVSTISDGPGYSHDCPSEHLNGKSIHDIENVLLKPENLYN", "settings": "Antagonist"}, "[16]": {"biological_target": "168 GPCRs (Homo sapiens, UniProt O43193)", "sequence (O43193 whole entry)": "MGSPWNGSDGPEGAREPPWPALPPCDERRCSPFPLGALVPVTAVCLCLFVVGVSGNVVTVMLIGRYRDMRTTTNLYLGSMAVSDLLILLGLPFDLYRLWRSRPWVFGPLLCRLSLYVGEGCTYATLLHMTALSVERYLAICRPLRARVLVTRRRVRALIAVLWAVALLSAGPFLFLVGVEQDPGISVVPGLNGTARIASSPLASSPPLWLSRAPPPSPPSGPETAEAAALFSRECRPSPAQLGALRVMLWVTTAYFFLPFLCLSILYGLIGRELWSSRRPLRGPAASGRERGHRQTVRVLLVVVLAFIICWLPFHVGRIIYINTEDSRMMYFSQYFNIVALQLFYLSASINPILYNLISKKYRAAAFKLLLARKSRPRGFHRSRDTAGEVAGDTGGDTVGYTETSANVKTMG", "settings": "MLNR"}, "[17]": {"biological_target": "168 GPCRs (Homo sapiens, UniProt P30988)", "sequence (P30988 25-474)": "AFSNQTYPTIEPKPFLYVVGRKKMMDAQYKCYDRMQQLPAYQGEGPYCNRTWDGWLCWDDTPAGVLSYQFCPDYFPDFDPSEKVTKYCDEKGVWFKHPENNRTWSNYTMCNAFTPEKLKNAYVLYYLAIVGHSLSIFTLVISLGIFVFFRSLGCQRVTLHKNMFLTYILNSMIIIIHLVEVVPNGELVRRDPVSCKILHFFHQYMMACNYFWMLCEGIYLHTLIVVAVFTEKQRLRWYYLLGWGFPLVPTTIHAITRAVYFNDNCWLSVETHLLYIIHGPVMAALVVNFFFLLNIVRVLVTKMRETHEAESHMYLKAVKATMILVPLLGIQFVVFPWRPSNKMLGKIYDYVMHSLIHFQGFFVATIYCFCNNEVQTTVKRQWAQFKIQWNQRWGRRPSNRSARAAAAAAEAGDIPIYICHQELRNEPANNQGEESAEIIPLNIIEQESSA", "settings": "Antagonist"}, "[18]": {"biological_target": "168 GPCRs (Homo sapiens, UniProt P30518)", "settings": "AVPR2, Antagonist"}, "[19]": {"biological_target": "168 GPCRs (Homo sapiens, UniProt Q9Y5N1)", "sequence (Q9Y5N1 whole entry)": "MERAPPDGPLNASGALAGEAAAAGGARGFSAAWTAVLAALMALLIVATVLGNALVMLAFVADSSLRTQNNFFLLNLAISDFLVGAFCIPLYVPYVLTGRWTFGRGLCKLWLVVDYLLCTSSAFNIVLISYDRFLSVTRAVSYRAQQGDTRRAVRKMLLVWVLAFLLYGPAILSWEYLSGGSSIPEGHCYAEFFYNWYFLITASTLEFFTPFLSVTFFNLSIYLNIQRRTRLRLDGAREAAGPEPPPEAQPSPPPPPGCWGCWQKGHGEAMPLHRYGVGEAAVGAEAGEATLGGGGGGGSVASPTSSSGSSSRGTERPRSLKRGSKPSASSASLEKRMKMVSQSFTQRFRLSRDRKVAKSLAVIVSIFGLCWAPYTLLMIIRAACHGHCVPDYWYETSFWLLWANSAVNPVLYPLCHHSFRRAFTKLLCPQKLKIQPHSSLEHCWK"}}, "data": [{"molecule": "CNC(C)C(=O)c1ccc2c(c1)OCO2", "note": "(stereo not shown) [methylone, 3,4-methylenedioxy-N-methylcathinone]", "values": [{"measurement": "activity at 10 µM", "setting": "[1]; Antagonist mode, 10 uM", "value": -14, "unit": "%"}, {"measurement": "activity at 1 µM", "setting": "[1]; Antagonist, 1 uM", "value": -5.2, "unit": "%"}, {"measurement": "activity at 10 µM", "setting": "[2]; Antagonist mode, 10 uM", "value": 1.6, "unit": "%"}, {"measurement": "activity at 1 µM", "setting": "[2]; Antagonist, 1 uM", "value": 9.8, "unit": "%"}, {"measurement": "activity at 10 µM", "setting": "[3]; HRH2, Antagonist mode, 10 uM", "value": 8.1, "unit": "%"}, {"measurement": "activity at 1 µM", "setting": "[3]; HRH2, Antagonist, 1 uM", "value": 7.1, "unit": "%"}, {"measurement": "activity at 10 µM", "setting": "[4]; CX3CR1, Antagonist mode, 10 uM", "value": -6.1, "unit": "%"}, {"measurement": "activity at 1 µM", "setting": "[4]; CX3CR1, Antagonist, 1 uM", "value": -0.2, "unit": "%"}, {"measurement": "activity at 10 µM", "setting": "[5]; SSTR3, Antagonist mode, 10 uM", "value": 8, "unit": "%"}, {"measurement": "activity at 1 µM", "setting": "[5]; SSTR3, Antagonist, 1 uM", "value": 13.2, "unit": "%"}, {"measurement": "activity at 10 µM", "setting": "[6]; Antagonist mode, 10 uM", "value": -21.5, "unit": "%"}, {"measurement": "activity at 1 µM", "setting": "[6]; Antagonist, 1 uM", "value": 12.4, "unit": "%"}, {"measurement": "activity at 10 µM", "setting": "[7]; FPRL1, Antagonist mode, 10 uM", "value": 3.9, "unit": "%"}, {"measurement": "activity at 1 µM", "setting": "[7]; FPRL1, Antagonist, 1 uM", "value": 12.3, "unit": "%"}, {"measurement": "activity at 10 µM", "setting": "[8]; OPRM1, OPRM1, Antagonist mode, 10 uM", "value": -18, "unit": "%"}, {"measurement": "activity at 1 µM", "setting": "[8]; OPRM1, OPRM1, Antagonist, 1 uM", "value": -8, "unit": "%"}, {"measurement": "activity at 10 µM", "setting": "[9]; CNR1, Antagonist mode, 10 uM", "value": -17.1, "unit": "%"}, {"measurement": "activity at 1 µM", "setting": "[9]; CNR1, Antagonist, 1 uM", "value": -3.5, "unit": "%"}, {"measurement": "activity at 10 µM", "setting": "[10]; GPR120, Antagonist mode, 10 uM", "value": 40.3, "unit": "%"}, {"measurement": "activity at 1 µM", "setting": "[10]; GPR120, Antagonist, 1 uM", "value": 46.5, "unit": "%"}, {"measurement": "activity at 10 µM", "setting": "[11]; Antagonist mode, 10 uM", "value": -1.4, "unit": "%"}, {"measurement": "activity at 1 µM", "setting": "[11]; Antagonist, 1 uM", "value": 0.7, "unit": "%"}, {"measurement": "activity at 1 µM", "setting": "[12]; 1 uM", "value": -0.8, "unit": "%"}, {"measurement": "activity at 10 µM", "setting": "[12]; 10 uM", "value": -1.2, "unit": "%"}, {"measurement": "activity at 10 µM", "setting": "[13]; Antagonist mode, 10 uM", "value": 14.5, "unit": "%"}, {"measurement": "activity at 1 µM", "setting": "[13]; Antagonist, 1 uM", "value": 28.7, "unit": "%"}, {"measurement": "activity at 10 µM", "setting": "[14]; Antagonist mode, 10 uM", "value": -6.3, "unit": "%"}, {"measurement": "activity at 1 µM", "setting": "[14]; Antagonist, 1 uM", "value": 1.7, "unit": "%"}, {"measurement": "activity at 1 µM", "setting": "[15]; CALCRL-RAMP1", "value": 4.7, "unit": "%"}, {"measurement": "activity at 10 µM", "setting": "[15]; CALCRL-RAMP1", "value": 7, "unit": "%"}, {"measurement": "activity at 1 µM", "setting": "[15]; CALCRL-RAMP2", "value": 19.1, "unit": "%"}, {"measurement": "activity at 10 µM", "setting": "[15]; CALCRL-RAMP2", "value": 7, "unit": "%"}, {"measurement": "activity at 1 µM", "setting": "[15]; CALCRL-RAMP3", "value": -18.5, "unit": "%"}, {"measurement": "activity at 10 µM", "setting": "[15]; CALCRL-RAMP3", "value": -7.5, "unit": "%"}, {"measurement": "activity at 10 µM", "setting": "[16]; Antagonist mode, 10 uM", "value": 12.3, "unit": "%"}, {"measurement": "activity at 1 µM", "setting": "[16]; Antagonist, 1 uM", "value": 15.6, "unit": "%"}, {"measurement": "activity at 1 µM", "setting": "[17]; CALCR-RAMP2", "value": -10.6, "unit": "%"}, {"measurement": "activity at 10 µM", "setting": "[17]; CALCR-RAMP2", "value": -19.6, "unit": "%"}, {"measurement": "activity at 1 µM", "setting": "[17]; CALCR-RAMP3", "value": -8.9, "unit": "%"}, {"measurement": "activity at 10 µM", "setting": "[17]; CALCR-RAMP3", "value": 3.3, "unit": "%"}, {"measurement": "activity at 1 µM", "setting": "[17]; CALCR", "value": 5.4, "unit": "%"}, {"measurement": "activity at 10 µM", "setting": "[17]; CALCR", "value": -4.4, "unit": "%"}, {"measurement": "activity at 1 µM", "setting": "[18]; 1 uM", "value": -2.7, "unit": "%"}, {"measurement": "activity at 10 µM", "setting": "[18]; 10 uM", "value": -14.8, "unit": "%"}, {"measurement": "activity at 10 µM", "setting": "[19]; HRH3, Antagonist mode, 10 uM", "value": 5.8, "unit": "%"}, {"measurement": "activity at 1 µM", "setting": "[19]; HRH3, Antagonist, 1 uM", "value": 9.5, "unit": "%"}]}]}
